Measured values: patent US20240344145A1, “PHARMACOGENOMICS SCORE TO MAKE DECISIONS ON THERAPY AUGMENTATION IN AML” (University of Florida Research Foundation, Incorporated, priority 2021, published 2024)

Tested on: pediatric AML patients
Test: AML02 multicenter clinical trial, LDAC vs HDAC induction arms: MRD1, EFS and OS overall and by ACS10 score
Type: in vivo, human
Parameters: 3-year EFS / 4-year OS / 5-year OS / 4-year EFS / 5-year EFS / 3-year OS: unit not given here
Settings: for Event-free Survival 5 years / Overall Survival 5 years: AML02 cohort
Description: One hundred and sixty-six pediatric AML patients treated under the multicenter AML02 clinical trial protocol were included in the study. Details of study design and clinical outcome have been described elsewhere. Briefly, patients with de novo AML were randomized to receive either high (3 g/m^2, given every 12 h on days 1, 3, and 5; this condition is designated “HDAC”) or low dose (100 mg/m^2 given every 12 h on days 1-10; this condition is designated “LDAC”) cytarabine along with daunorubicin (50 mg/m^2 on days 2, 4 and 6) and etoposide (100 mg/m^2 on days 2-6) as a first course of chemotherapy with subsequent treatment tailored to response and risk classification. For initial risk assignment, patients with cytogenetic translocations comprisingt [8;21] (e.g., translocation between chromosome 8 and 21), inv (16), ort [9;11] were classified as low-risk. Patients with features such as deletion of chromosome 7 (−7), presence of FLT3-ITD mutation (FLT-ITD), cytogenetic translocation comprisingt [6;9], megakaryoblastic leukemia (AMKL), treatment-related AML, or AML arising from MDS were classified as high-risk AML. Patients lacking any of the low or high-risk group features were provisionally classified as standard risk AML. Patient risk classifications were updated on the basis of minimal residual disease evaluations. Clinical endpoints used in this evaluation were defined as follows: i) Minimal residual disease after induction 1 (“MRD1”) (patients were defined as MRD positive if they had ≥1 leukemic cell per 1000 mononuclear bone marrow cells (≥0.1%); ii) Complete remission defined as trilineage hematopoietic recovery with less than 5% blasts in the marrow; iii) Event-free survival (“EFS”) defined as the time from study enrollment to induction failure, relapse, secondary malignancy, death, or study withdrawal for any reason, with event-free patients censored on the date of last follow-up; and iv) Overall survival (“OS”) defined as the time from study enrollment to death, with living patients censored on the date of last follow-up. St. Jude Institutional Review Board approved the study, and informed consent was obtained from parents/guardians and consents/assents from the individuals.
The association of MRD1, EFS, and OS was evaluated with ACS10 scores in the AML02 discovery cohort and the AAML0531 validation cohort. The Kaplan-Meier method was used to estimate the EFS and OS probabilities for well-defined groups of patients. Cox regression models were used to associate ACS10 with EFS and OS and used logistic regression models to associate ACS10 with MRD1. The Wilcoxon rank-sum test and Kruskal-Wallis test were used to compare medians of numeric variables across groups. Chi-square tests and Fisher's exact test were used to evaluate the association among pairs of categorical variables. All p-values are two-sided. All statistical analyses were performed using R software (www.r-project.org).
The multicenter AML02 clinical trial randomly assigned subjects to receive low dose ara-C (LDAC: 100 mg/m^2; n=91 patients) or high dose ara-C(HDAC: 3 g/m^2; n=75 patients) in combination with daunorubicin and etoposide as the first course of chemotherapy as described above in patient cohort section. Thus, the association of SNPs with outcome within each arm separately was also explored (Table 5).
Given patients in AML02 cohort were randomized to receive low or augmented high dose of ara-C, this unique opportunity was leveraged to evaluate performance of ACS10 score within the different ara-C dose treatment arms (of note LDAC and HDAC arms had similar distribution of patients across, disease characteristics, risk group, cytogenetics, race, gender etc. Table 3). […]

[1] = ACS10 score 0, risk-adjusted Cox model
[2] = ACS10 score 1, risk-adjusted Cox model
[3] = ACS10 score 2, risk-adjusted Cox model
[4] = ACS10 score 3, risk-adjusted Cox model
[5] = ACS10 score 4, risk-adjusted Cox model
[6] = ACS10 score 5, risk-adjusted Cox model
[7] = ACS10 score −1, risk-adjusted Cox model
[8] = ACS10 score −2, risk-adjusted Cox model
[9] = ACS10 score −3, risk-adjusted Cox model
[10] = ACS10 score −5, risk-adjusted Cox model
[11] = low ACS10 score (≤0) patients, AML02
[12] = number of patients per arm, after induction 1, AML02 cohort
[13] = patients with ACS10 score of +5, risk-adjusted Cox model
[14] = patients with ACS10 score of −5, risk-adjusted Cox model

Nc1ccn([C@@H]2O[C@H](CO)[C@@H](O)[C@@H]2O)c(=O)n1 [LDAC, cytarabine]
3-year EFS [1]: 0.5527
3-year OS [1]: 0.7030
4-year EFS [1]: 0.5391
4-year OS [1]: 0.6960
5-year EFS [1]: 0.5316
5-year OS [1]: 0.6960
3-year EFS [2]: 0.6541
3-year OS [2]: 0.7604
4-year EFS [2]: 0.6423
4-year OS [2]: 0.7544
5-year EFS [2]: 0.6357
5-year OS [2]: 0.7544
3-year EFS [3]: 0.7393
3-year OS [3]: 0.8089
4-year EFS [3]: 0.7296
4-year OS [3]: 0.8039
5-year EFS [3]: 0.7242
5-year OS [3]: 0.8039
3-year EFS [4]: 0.8073
3-year OS [4]: 0.8489
4-year EFS [4]: 0.7997
4-year OS [4]: 0.8448
5-year EFS [4]: 0.7955
5-year OS [4]: 0.8448
3-year EFS [5]: 0.8596
3-year OS [5]: 0.8814
4-year EFS [5]: 0.8539
4-year OS [5]: 0.8781
5-year EFS [5]: 0.8507
5-year OS [5]: 0.8781
3-year EFS [6]: 0.8988
3-year OS [6]: 0.9074
4-year EFS [6]: 0.8946
4-year OS [6]: 0.9048
5-year EFS [6]: 0.8922
5-year OS [6]: 0.9048
3-year EFS [7]: 0.4399
3-year OS [7]: 0.6369
4-year EFS [7]: 0.4255
4-year OS [7]: 0.6289
5-year EFS [7]: 0.4176
5-year OS [7]: 0.6289
3-year EFS [8]: 0.3251
3-year OS [8]: 0.5632
4-year EFS [8]: 0.3112
4-year OS [8]: 0.5546
5-year EFS [8]: 0.3037
5-year OS [8]: 0.5546
3-year EFS [9]: 0.2202
3-year OS [9]: 0.4846
4-year EFS [9]: 0.2083
4-year OS [9]: 0.4756
5-year EFS [9]: 0.2020
5-year OS [9]: 0.4756
3-year EFS [10]: 0.0743
3-year OS [10]: 0.3280
4-year EFS [10]: 0.0683
4-year OS [10]: 0.3197
5-year EFS [10]: 0.0652
5-year OS [10]: 0.3197
Event-free Survival 5 years (High ACS10 score group): 0.712 ± 0.063
Overall Survival 5 years (High ACS10 score group): 0.829 ± 0.052
Event-free Survival 5 years (Low ACS10 score group): 0.421 ± 0.08
Overall Survival 5 years (Low ACS10 score group): 0.579 ± 0.08
5 year EFS [11]: 42%
five-year OS [11]: 57%
MRDIND1 Negative (<0.1%) [12]: 49^+
MRDIND1 Positive (>=0.1%) [12]: 38^+
3-year EFS, model estimate [13]: 89.9%
3-year OS, model estimate [13]: 90.7%
3-year EFS, model estimate [14]: 7.4%
3-year OS, model estimate [14]: 32.8%
Event-free Survival 5 years (probability, whole arm): 0.591 ± 0.0518
Overall Survival 5 years (probability, whole arm): 0.724 ± 0.047
EFS HR, low-ACS10 vs high-ACS10 score (within arm, AML02): 2.81
OS HR, low-ACS10 vs high-ACS10 score (within arm, AML02): 2.98
EFS HR for each one-point increase in ACS10 (within arm, risk-adjusted Cox model, AML02): 0.70
